Test results published in EP2161024A1, “Combination product for the treatment of cancer” (Universitätsklinikum Hamburg-Eppendorf, priority 2008, dated 2010).

Columns and labels:
Zelllinie H69 = assay: XTT cell proliferation (growth) test with H69 cells; format: cell-based; conditions: single agent (alleinige Gabe), Figuren 5a, 5b
OH1-Zellen = assay: XTT cell proliferation (growth) test with OH1 cells; conditions: single agent (alleinige Gabe), 1 µM to 0,001 µM, 72 h incubation, Figur 2
Zelllinie H82 = assay: XTT cell proliferation (growth) test with H82 cells; conditions: for Zellwachstum: single agent (alleinige Gabe), H82 cells, Figur 7

Row | Structure (SMILES) | Wachstum der Zellen (Zelllinie H69) | Wachstum der OH1-Zellen (OH1-Zellen) | inhibition at 5 µM (Zelllinie H82; Homo sapiens, NCI-H82, read-out: Hemmung der Proliferation) [%] | Zellwachstum (Zelllinie H82)
1 | COc1ccc(CCN2CCC(Nc3nc4ccccc4n3Cc3ccc(F)cc3)CC2)cc1 [Astemizol, 1-[(4-Fluorphenyl)methyl]-N-[1-[2-(4-methoxyphenyl)ethyl]-4-piperidyl]benzoimidazol-2-amin] | nicht zu einer Verringerung des Wachstums | nicht zu einer Verringerung des Wachstums | 50 | kaum Auswirkungen auf das Zellwachstum
2 | CC(C)c1c(C(=O)Nc2ccccc2)c(-c2ccccc2)c(-c2ccc(F)cc2)n1CC[C@@H](O)C[C@@H](O)CC(=O)O [Atorvastatin, (3R,5R)-7-[2-(4-Fluorphenyl)-5-isopropyl-3-phenyl-4-(phenylcarbamoyl)pyrrol-1-yl]-3,5-dihydroxyheptansäure] | nicht zu einer Verringerung des Wachstums | nicht zu einer Verringerung des Wachstums | – | kaum Auswirkungen auf das Zellwachstum
3 | CCC(C)C(=O)OC1CC(C)C=C2C=CC(C)C(CCC3CC(O)CC(=O)O3)C21 (stereo not drawn) [Lovastatin, [8-[2-(4-hydroxy-6-oxo-oxan-2-yl)ethyl]-3,7-dimethyl-1,2,3,7,8,8a-hexahydronaphthalen-1-yl]-2-methylbutanoat] | – | nicht zu einer Verringerung des Wachstums | – | kaum Auswirkungen auf das Zellwachstum
